In US20100204111A1 (priority 2007, published 2010):
Bridges are numbered along the chain shown (N, C = ends). Where no end group is shown, it is not given here. [ ]: non-standard residue; d: D form. Nle = CCCC[C@H](N)C(=O)O

Experiments:
HIV-1IIIB = test: HIV-1 antiviral assay in CEM-SS cells; assay type: cell-based
HCMV strain AD169 = assay type: cell-based; conditions: MRC-5 cells
[1] = test system: hepatitis B virus (HBV) ayw strain; assay type: cell-based; conditions: 10 micrograms per ml; HepG2-2.2.15 cells; six days
HUVEC = test: Endothelial Tube Formation Assay; assay type: cell-based, human; conditions: 10 micrograms per ml, 20 hours, combination peptide 1:peptide 2 0.95 mole:1.05 mole
Protocol: The endothelial tube formation assay is based on the ability of endothelial cells to form three-dimensional capillary-like tubular structures when cultured on a gel of basement membrane extract. The endothelial tube formation assay represents a powerful model for studying inhibition and induction of angiogenesis. […] Positive control was vehicle only. The endothelial cells were allowed to form tubes foe 20 hours and were then examined under an inverted fluorescent microscope. Duplicate wells for each treatment were photographed and quantitatevily analyzed for an average tubule length using image analysis software ImageProPlus. Raw data were expressed as average tubule lengths in pixels ±standard deviation. Statistic p values were computed using the Student's t-test.

Interleukin-4 (IL-4) = test: Th1/Th2 Cytokine Profiling Assay: IL-4; assay type: cell-based, Balb/c mice; conditions: 10 micrograms per ml; Ovalbumin-restimulated Balb/c spleen cells; 72 hours
Protocol: (§1) On day 50, spleens of the mice were harvested (3 weeks after last boost with Ovalbumin). […] Thereafter, additional Ovalbumin was added to the cells at 10 micrograms/ml for in vitro restimulation of the cells. 72 hours later, cell supernatants were harvested and assayed using the Becton Dickinson Mouse Th1/Th2 Cytokine CBA Kit. This kit can be used to measure Interleukin-2 (IL-2), Interleukin-4 (IL-4), Interleukin-5 (IL-5), Interferon-γ (IFN-γ), and Tumor Necrosis Factor-α (TNF-α) protein levels in a single sample.

[2] = test system: Primary Human endothelial cells (HUVEC); test: Endothelial Cell Migration Assay; assay type: cell-based; conditions: 10 micrograms per ml, 22 hours, combination peptide 1:peptide 2 0.95 mole:1.05 mole
Protocol: Primary Human endothelial cells (HUVEC) were seeded in insert chambers with 3 micrometer pore size of multi-transwell plate for 6 hours at 37° C. in Endothelial Cell Basal Medium (EBM) supplemented with 0.1% bovine serum albumin. […] Images of 3 fields per insert were taken and the number of migrated cells per field were quantified using the ImageProPlus software. Data were analyzed for the average number of the migrated cells and standard deviation of six data points for each treatment condition. […] Statistic p values were computed using the Student's t-test.

Interleukin-5 (IL-5) = test: Th1/Th2 Cytokine Profiling Assay: IL-5; assay type: cell-based, Balb/c mice; conditions: 10 micrograms per ml; Ovalbumin-restimulated Balb/c spleen cells; 72 hours
Protocol: as §1

Interleukin-2 (IL-2) = test: Th1/Th2 Cytokine Profiling Assay: IL-2; assay type: cell-based, Balb/c mice; conditions: 10 micrograms per ml; Ovalbumin-restimulated Balb/c spleen cells; 72 hours
Protocol: as §1

Interferon-γ (IFN-γ) = test: Th1/Th2 Cytokine Profiling Assay: IFN-γ; assay type: cell-based, Balb/c mice; conditions: 10 micrograms per ml; Ovalbumin-restimulated Balb/c spleen cells; 72 hours
Protocol: as §1

[3] = test system: Tumor Necrosis Factor-α (TNF-α); test: Th1/Th2 Cytokine Profiling Assay: TNF-α; assay type: cell-based, Balb/c mice; conditions: 10 micrograms per ml; Ovalbumin-restimulated Balb/c spleen cells; 72 hours
Protocol: as §1

[4] = test system: Human Peripheral Blood Mononuclear Cells (PBMC), B cell proliferation; test: B Cell Proliferation Assay (SAC plus Interleukin-2, 3H-thymidine); assay type: cell-based; conditions: 10 micrograms per ml; SAC plus Interleukin-2 stimulated PBMC; combination: 0.95 mole peptide 1 and 1.05 mole peptide 2
Protocol: Human Peripheral Blood Mononuclear Cells (PBMC) were obtained from normal human donors. […] 10^5/well PBMC were plated in 96-well microtiter plates and assayed in duplicate with the peptides. […] At the end of incubation time, the plates were harvested and the cells counted by liquid scintillation for the incorporation of ^3H-thymidine as a measure of B cell proliferation.

CC(C)(C)NC(=O)[C@@H]1CN(Cc2cccnc2)CCN1C[C@@H](O)C[C@@H](Cc1ccccc1)C(=O)N[C@H]1c2ccccc2C[C@H]1O [indinavir] was tested, and the “antiviral activity (positive control compounds)” value (HIV-1IIIB) was “expected levels of antiviral activity”.
Cc1cn([C@H]2C[C@H](N=[N+]=[N-])[C@@H](CO)O2)c(=O)[nH]c1=O [AZT] was tested, and the “antiviral activity (positive control compounds)” value (HIV-1IIIB) was “expected levels of antiviral activity”.
In the case of Nc1nc(O)c2ncn(COC(CO)CO)c2n1 [Ganciclovir, reference compound], the “antiviral activity (positive control compound)” value (HCMV strain AD169; positive control, HCMV AD169) is reported as “expected levels of antiviral activity”.
With “Tyr-Gly-Gly-Phe-Met-Thr-Ser-Glu-Lys-Ser-Gln-Thr-Pro-Leu-Val-Thr-Leu-Phe-Lys-Asn-Ala-Ile-Ile-Lys-Asn-Ala-Tyr-Lys-Lys-Gly-Glu-OH [Peptide 2]” the “inhibition of HBV replication on tested liver cells” value [1] was “no effect”, the “inhibition of the tube formation of endothelial cells” value (HUVEC) was 38% and the “IL-4 spleen cells; TH2 response (% of control)” value (Interleukin-4 (IL-4)) was 100.6 % of control. For the same compound, the “inhibition of the migration of human endothelial cells” value [2] was 29%, the “IL-5 spleen cells; TH2 response (% of control)” value (Interleukin-5 (IL-5)) was 103.3 % of control and the “inhibition of HCMV plaque formation as compared to the virus control” value (HCMV strain AD169; 10 micrograms per ml, 7-10 days) was “did not inhibit”. The “IL-2 spleen cells (% of control)” value (Interleukin-2 (IL-2)) was 163.9 % of control, the “IFNγ spleen cells; TH1 response (% of control)” value (Interferon-γ (IFN-γ)) was 106.6 % of control and the “TNF-a spleen cells; TH1 response (% of control)” value [3] was 110.7 % of control. For the same compound, the “induction of the proliferation of specifically stimulated human B-cells” value [4] was 22.7%.
“[dF]HLLREVLE[Nle]ARAEQLAQEAHKNRKL[Nle]EII-NH2 (lactam 19-22) [Peptide 1]” was tested, and the “inhibition of the tube formation of endothelial cells” value (HUVEC) was 31%, the “IL-4 spleen cells; TH2 response (% of control)” value (Interleukin-4 (IL-4)) was 114.4 % of control and the “inhibition of the migration of human endothelial cells” value [2] was 13%. For the same compound, the “IL-5 spleen cells; TH2 response (% of control)” value (Interleukin-5 (IL-5)) was 90.1 % of control, the “IL-2 spleen cells (% of control)” value (Interleukin-2 (IL-2)) was 210.4 % of control and the “IFNγ spleen cells; TH1 response (% of control)” value (Interferon-γ (IFN-γ)) was 137.6 % of control. The “TNF-a spleen cells; TH1 response (% of control)” value [3] was 120.0 % of control and the “induction of the proliferation of specifically stimulated human B-cells” value [4] was 11.1%.
